Patent US11919886B2, “4,9-dioxo-4,9-dihydronaphtho[2,3-B]furan-3-carboxamide derivatives and uses thereof for treating proliferative diseases and infectious diseases” (Academia Sinica, priority 2016, dated 2024)
≈ marks a conversion by molar mass, not a printed value. Read-outs that look alike come from different tables or passages of the source.

Key:
MCM2 = target: T1, MCM2 (Homo sapiens, UniProt P49736); experiment: MCM2 ubiquitination (Myc-Ub transfection, MCM2 immunoprecipitation); assay type: cell-based; details: H1975 co-expressing Myc-Ub, 140 nM, 12 hours
T1 construct: The MCM2 proteins were pulled down by incubating the H1975 lysate with compound 1-conjugated magnetic beads; endogenous in cells; host or cells: H1975
T1 sequence (P49736 whole entry): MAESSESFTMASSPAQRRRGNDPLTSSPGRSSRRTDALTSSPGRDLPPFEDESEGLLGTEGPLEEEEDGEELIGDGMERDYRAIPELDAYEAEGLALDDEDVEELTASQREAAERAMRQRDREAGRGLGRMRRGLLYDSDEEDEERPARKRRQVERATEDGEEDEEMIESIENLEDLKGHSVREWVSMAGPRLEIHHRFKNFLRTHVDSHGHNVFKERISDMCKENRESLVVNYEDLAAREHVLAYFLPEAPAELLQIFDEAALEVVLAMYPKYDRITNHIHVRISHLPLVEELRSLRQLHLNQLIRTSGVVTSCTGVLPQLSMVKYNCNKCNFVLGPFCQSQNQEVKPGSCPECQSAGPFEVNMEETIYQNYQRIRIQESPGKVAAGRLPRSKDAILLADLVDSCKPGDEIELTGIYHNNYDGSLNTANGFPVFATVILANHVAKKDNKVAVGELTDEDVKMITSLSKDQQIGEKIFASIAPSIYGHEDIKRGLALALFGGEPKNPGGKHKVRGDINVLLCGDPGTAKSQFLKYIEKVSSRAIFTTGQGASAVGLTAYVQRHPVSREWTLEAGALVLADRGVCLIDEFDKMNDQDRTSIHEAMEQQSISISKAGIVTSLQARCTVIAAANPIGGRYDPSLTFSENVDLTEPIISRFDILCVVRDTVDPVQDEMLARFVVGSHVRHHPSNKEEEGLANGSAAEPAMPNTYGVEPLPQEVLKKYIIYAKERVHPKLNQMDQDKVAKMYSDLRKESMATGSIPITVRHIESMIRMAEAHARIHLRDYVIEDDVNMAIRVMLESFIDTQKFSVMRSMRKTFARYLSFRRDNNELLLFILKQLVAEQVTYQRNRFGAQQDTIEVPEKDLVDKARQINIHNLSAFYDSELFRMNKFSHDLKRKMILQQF
Procedure: To determine whether Compound 1 triggers MCM2 degradation through promoting MCM2 ubiquitination, Myc-tagged ubiquitin (Myc-Ub) was transfected into H1975 cells treated with or without compound 1 and followed by MCM2 immunoprecipitation. The cells were transiently transfected with pcDNA3-Myc-Ub and treated with or without 140 nM of compound 1 combined with MG132. After 12 hours, the cells were harvested and MCM2 proteins were precipitated with specific anti-MCM2 antibodies. The ubiqiuitination pattern were detected by immunoblotting. IgG served as the antibody control in the immunoprecipitation experiment.

H1975 cell line = experiment: Sulforhodamine B colorimetric (SRB) assay, H1975; details: Homo sapiens, NCI-H1975, 72 h
H1975 cells [1] = experiment: Replication fork number by MCM2 immunofluorescence staining; assay type: cell-based, human; details: H1975, 140 nM, 48 h
Procedure: In addition, to evaluate the effects of compound 1 on the progression of DNA replication, the number of replication forks was determined by MCM2 immunofluorescence staining in H1975 cells released from the G1 phase with DMSO and with compound 1 treatment. Exemplary results are shown in Panel (B) of FIG. 2. To evaluate the effects on DNA replication of compound 1, H1975 cells were arrested in G1 by contact inhibition. After 3 days, the cells were re-plated at a low density on cover slips and allowed to progress through the cell cycle. The cells were pulsed with 140 nM compound for 48 h and were fixed for 10 minutes at room temperature in 3.7% cold paraformaldehyde in PBS (pH 7.2), washed 3 times with PBS, and permeabilized for 10 minutes at room temperature in PBS containing 0.1% Triton X-100. The cells were blocked with PBS containing 3% bovine serum albumin and stained overnight at 4° C. with primary antibodies against MCM2, followed by incubation for 1 hour at 37° C. with Alexa Fluor 488 Goat Anti-Mouse IgG (Life Technologies Corporation), respectively. The cells were mounted onto microscope slides with ProLong Gold Antifade Reagent with DAPI (4′,6-Diamidino-2-phenylindole dihydrochloride) (Life Technologies Corporation) and then examined and photographed using Zeiss LSM 700 Confocal (Zeiss, Urbana, IL). […] (Panel (B) of FIG. 2)

Acinetobacter baumannii = experiment: MIC, broth micro dilution method; assay type: cell-based
H1975 cells [2] = experiment: BrdU incorporation (DNA replication) by flow cytometry; assay type: cell-based, human; details: H1975, treated 12, 24 or 48 h
Procedure: Panel (A): A chart showing DNA replication in Compound 1-treated H1975 cells was inhibited. DNA histograms (BrdU incorporation vs. DNA content) of DMSO or compound 1-treated H1975 cells are shown at 12 to 48 hours. The H1975 cells were BrdU-pulsed (BD Pharmingen™ BrdU Flow Kit Staining) and analyzed by flow cytometry. Panel (B): A chart showing compound 1 decreased the replication fork number. The replication forks were analyzed by immunofluorescence staining with anti-MCM2 antibodies (see row labeled “MCM2” and “Merge with DAPI”) and DAPI (see row labeled “Merge with DAPI”). The quantification was made by counting signals obtained with the anti-MCM2 antibody using Image J software. (n=5 cells per group; original magnification, ×1000). Panel (C): A chart showing compound 1-treated H1975 cells have a prolonged S phase. A double thymidine block was performed, and the data were collected at the indicated time points.
To evaluate the effects on DNA replication of Compound 1, the levels of BrdU (5′-bromo′-2′-deoxyuridine) incorporation were examined. Exemplary results are shown in Panel (A) of FIG. 2. […] The content of BrdU was assessed using fluorescent antibodies. […] The samples were analyzed in a FACS caliber flow cytometer (Becton Dickinson, Sweden) for dot plot histogram analysis (BrdU incorporation vs. DNA content).

Enterococcus faecium = experiment: MIC, broth micro dilution method; assay type: cell-based
[3] = test system: Staphylococcus lugdunensis; experiment: MIC, broth micro dilution method; assay type: cell-based; details: clinical isolate; for MIC: Staphylococcus lugdunensis, strain NTUH-4179, methicillin-resistant
[4] = test system: Streptococcus infantarius subsp. infantarius; experiment: MIC, broth micro dilution method; assay type: cell-based; details: strain ATCC BAA-102, S. bovis
[5] = test system: Staphylococcus aureus (MSSA, MRSA); experiment: Disc diffusion method, inhibition zones; assay type: cell-based; details: for zone of inhibition at 5 µg/disc: Staphylococcus aureus, 5 μg
[6] = test system: HS68 (human foreskin fibroblast cells, used as normal cells); experiment: SRB cytotoxicity assay, HS68 normal cells; details: Hs68, 72 h
[7] = test system: CL1-5 (human lung adenocarcinoma cells, EGFR wild type and resistant to gefitinib); experiment: SRB cytotoxicity assay, CL1-5; details: CL1-5, 72 h
[8] = test system: A549 (adenocarcinomic human alveolar basal epithelial cells); experiment: SRB cytotoxicity assay, A549; details: A549, 72 h
[9] = strain NTUH-6767, methicillin-resistant

## Cc1oc2c(c1C(=O)NCCCn1ccnc1)C(=O)c1ccccc1C2=O [Compound 1, N-(3-(1H-Imidazol-1-yl)propyl)-2-methyl-4,9-dioxo-4,9-dihydronaphtho [2,3-b]furan-3-carboxamide]
MCM2
  Ubiquitylated MCM2: detected in treated cells
H1975 cell line; H1975, 72 h
  IC50: 77 nM
H1975 cell line; H1975 cell line, SRB assay, 72 hours
  IC50: 77 to 247 nM
H1975 cells [1]
  number of the replication fork: 176.8±8.721
Acinetobacter baumannii; read-out: MIC (μg/ml) 100%, strain ATCC19606, gram negative
  MIC: > 32 µg/mL
Acinetobacter baumannii; strain ATCC19606, gram negative, read-out: MIC (μg/ml) 50%
  MIC: > 32 µg/mL
H1975 cells [2]
  percentages of BrdU-positive cells vs DMSO control: lower than those in the DMSO control group
Enterococcus faecium; read-out: MIC (μg/ml) 100%, strain ATCC19434
  MIC: 16 µg/mL (≈ 44 µM)
Enterococcus faecium; strain ATCC19434, read-out: MIC (μg/ml) 50%
  MIC: 2 µg/mL (≈ 5.5 µM)
[3]; read-out: MIC (μg/ml) 100%
  MIC: 4 µg/mL (≈ 11 µM)
[3]; read-out: MIC (μg/ml) 50%
  MIC: 0.5 µg/mL (≈ 1.38 µM)
[3]; [9]
  MIC (μg/ml) 50%: 0.5 µg/mL (≈ 1.38 µM)
  MIC (μg/ml) 100%: 4 µg/mL (≈ 11 µM)
[4]; read-out: MIC (μg/ml) 100%
  MIC: 8 µg/mL (≈ 22 µM)
[4]; read-out: MIC (μg/ml) 50%
  MIC: 4 µg/mL (≈ 11 µM)
[5]; 5 μg concentration, disc diffusion
  antimicrobial activity against all the MRSA strains: showed antimicrobial activity
[5]; MRSA
  antibacterial activity against MRSA as compared to ciprofloxacin: stronger antibacterial activity
[5]; disc diffusion, read-out: average diameter of the inhibition zone
  zone of inhibition at 5 µg/disc: 25.5 mm
[5]; strain MRSA14979, read-out: Inhibition zone (mm)
  zone of inhibition at 5 µg/disc: 25 mm
[5]; strain MRSA15211, read-out: Inhibition zone (mm)
  zone of inhibition at 5 µg/disc: 26 mm
[5]; strain NTUH-104-2, MRSA (SCCmec VT, ST45), read-out: Inhibition zone (mm)
  zone of inhibition at 5 µg/disc: 24 mm
[5]; strain NTUH-2102, MRSA (SCCmec II, ST5, FA-S), read-out: Inhibition zone (mm)
  zone of inhibition at 5 µg/disc: 26 mm
[5]; strain NTUH-4578, MRSA (SCCmec IV, ST59), read-out: Inhibition zone (mm)
  zone of inhibition at 5 µg/disc: 27 mm
[5]; strain NTUH-9383, MRSA (SCCmec III, ST239, FA-R), read-out: Inhibition zone (mm)
  zone of inhibition at 5 µg/disc: 29 mm
[5]; strain PM1, MRSA (SCCmec VT, ST59), read-out: Inhibition zone (mm)
  zone of inhibition at 5 µg/disc: 25 mm
[5]; strain SA10451, read-out: Inhibition zone (mm)
  zone of inhibition at 5 µg/disc: 24 mm
[5]; strain SA10780, read-out: Inhibition zone (mm)
  zone of inhibition at 5 µg/disc: 25 mm
[5]; strain SAI 1863, read-out: Inhibition zone (mm)
  zone of inhibition at 5 µg/disc: 25 mm
[5]; ATCC 25923 / MRSA / MSSA, strain ATCC25923, MSSA, read-out: Inhibition zone (mm)
  zone of inhibition at 5 µg/disc: 26 mm
[6]
  IC50: > 1000 nM
[7]
  IC50: 280 nM
[8]
  IC50: 53 nM
